# Assay results: US12351580B2, “NLRP3 modulators” (Innate Tumor Immunity, Inc., priority 2017, dated 2025)
# Biological target: T1, hNLRP3 (Homo sapiens, UniProt Q96P20)
# T1 construct: THP-1 cells were purchased from the American Type Culture Collection; host or cells: THP-1 cells, PMA-differentiated
# Test: Measurement of IL-1β production in PMA-differentiated THP-1 cells (hNLRP3 agonist; ELISA, alternative and hTRF procedures)
# Type: cell-based
# How it was run: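 PMA-differentiated THP-1 cells (PMA […] 24 h, 20 μg/ml overnight, or 50 ng/ml overnight, by procedure) replated in RPMI with 2% FBS and exposed to compound (e.g. 100–0.1 μM, 1% DMSO; hTRF format top 10 μM) for 4 h, 2 h, or 2 h respectively. Supernatant IL-1β measured by ELISA, or by hTRF with antibodies diluted 1:40.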
# T1 sequence (Q96P20 whole entry): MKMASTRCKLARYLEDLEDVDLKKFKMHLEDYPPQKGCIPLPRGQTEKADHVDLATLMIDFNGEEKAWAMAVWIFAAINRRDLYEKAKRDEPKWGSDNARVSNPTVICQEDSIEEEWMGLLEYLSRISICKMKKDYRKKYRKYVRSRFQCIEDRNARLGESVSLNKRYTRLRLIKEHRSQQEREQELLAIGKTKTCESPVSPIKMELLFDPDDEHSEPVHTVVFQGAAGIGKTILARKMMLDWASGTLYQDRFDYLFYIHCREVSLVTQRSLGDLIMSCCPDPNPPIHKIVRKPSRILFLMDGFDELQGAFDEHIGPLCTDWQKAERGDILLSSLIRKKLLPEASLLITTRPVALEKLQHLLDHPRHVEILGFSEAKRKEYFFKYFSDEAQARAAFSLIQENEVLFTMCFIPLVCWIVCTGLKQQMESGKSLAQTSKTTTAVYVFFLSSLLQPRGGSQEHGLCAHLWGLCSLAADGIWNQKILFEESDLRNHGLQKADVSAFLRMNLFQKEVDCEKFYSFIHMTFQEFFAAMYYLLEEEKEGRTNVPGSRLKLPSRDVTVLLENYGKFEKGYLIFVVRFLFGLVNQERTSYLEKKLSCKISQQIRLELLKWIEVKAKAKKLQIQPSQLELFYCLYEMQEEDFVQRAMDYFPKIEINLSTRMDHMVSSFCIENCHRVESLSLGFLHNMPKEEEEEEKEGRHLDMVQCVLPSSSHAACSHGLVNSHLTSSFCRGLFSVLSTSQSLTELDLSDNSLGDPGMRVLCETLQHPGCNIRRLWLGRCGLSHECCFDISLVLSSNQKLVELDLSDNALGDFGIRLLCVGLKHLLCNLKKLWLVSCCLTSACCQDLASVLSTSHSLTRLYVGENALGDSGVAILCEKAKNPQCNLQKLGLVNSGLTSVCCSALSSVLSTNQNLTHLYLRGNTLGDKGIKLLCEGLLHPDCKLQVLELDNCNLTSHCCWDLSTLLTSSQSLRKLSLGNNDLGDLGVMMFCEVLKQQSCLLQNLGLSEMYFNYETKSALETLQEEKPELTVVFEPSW
row,Compound,EC50
1,N#Cc1ccc(-c2ccc3c(c2)nc(N)c2nc(CN4CCCC4=O)[nH]c23)cc1 [Compound 434],15500 nM
2,"CCOC(=O)N(CC)Cc1nc2c(N)nc3cc(-c4cc[nH]n4)ccc3c2[nH]1 [Compound 436, Ethyl N-{[4-amino-7-(1H-pyrazol-3-yl)-1H-imidazo[4,5-c]quinolin-2-yl]methyl}-N-ethylcarbamate]",1300 nM
3,"CCN(Cc1nc2c(N)nc3cc(-c4cc[nH]n4)ccc3c2[nH]1)C(=O)Cc1cccc(C)c1 [Compound 437, N-{[4-amino-7-(1H-pyrazol-3-yl)-1H-imidazo[4,5-c]quinolin-2-yl]methyl}-N-ethyl-2-(3-methylphenyl)acetamide]",1100 nM
4,"CCN(Cc1nc2c(N)nc3cc(-c4cc[nH]n4)ccc3c2[nH]1)C(=O)c1cccnc1 [Compound 438, N-{[4-amino-7-(1H-pyrazol-3-yl)-1H-imidazo[4,5-c]quinolin-2-yl]methyl}-N-ethylpyridine-3-carboxamide]",4200 nM
5,"CCN(Cc1nc2c(N)nc3cc(-c4cc[nH]n4)ccc3c2[nH]1)C(=O)c1ccccn1 [Compound 439, N-{[4-amino-7-(1H-pyrazol-3-yl)-1H-imidazo[4,5-c]quinolin-2-yl]methyl}-N-ethylpyridine-2-carboxamide]",5700 nM
6,"CCN(Cc1nc2c(N)nc3cc(-c4cc[nH]n4)ccc3c2[nH]1)C(=O)CC(C)(C)O [Compound 440, N-{[4-amino-7-(1H-pyrazol-3-yl)-1H-imidazo[4,5-c]quinolin-2-yl]methyl}-N-ethyl-3-hydroxy-3-methylbutanamide]",18400 nM
7,"CCN(Cc1nc2c(N)nc3cc(-c4cc[nH]n4)ccc3c2[nH]1)C(=O)c1ccc(OC)cc1 [Compound 441, N-{[4-amino-7-(1H-pyrazol-3-yl)-1H-imidazo[4,5-c]quinolin-2-yl]methyl}-N-ethyl-4-methoxybenzamide]",690 nM
8,"CCN(Cc1nc2c(N)nc3cc(-c4cc[nH]n4)ccc3c2[nH]1)C(=O)c1cnccn1 [Compound 442, N-{[4-amino-7-(1H-pyrazol-3-yl)-1H-imidazo[4,5-c]quinolin-2-yl]methyl}-N-ethylpyrazine-2-carboxamide]",2600 nM
9,"CCN(Cc1nc2c(N)nc3cc(-c4cc[nH]n4)ccc3c2[nH]1)C(=O)Cc1ccccc1 [Compound 443, N-{[4-amino-7-(1H-pyrazol-3-yl)-1H-imidazo[4,5-c]quinolin-2-yl]methyl}-N-ethyl-2-phenylacetamide]",860 nM
10,"CCN(Cc1nc2c(N)nc3cc(-c4cc[nH]n4)ccc3c2[nH]1)C(=O)CCCc1ccccc1 [Compound 444, N-{[4-amino-7-(1H-pyrazol-3-yl)-1H-imidazo[4,5-c]quinolin-2-yl]methyl}-N-ethyl-4-phenylbutanamide]",930 nM
11,"CCN(Cc1nc2c(N)nc3cc(-c4cc[nH]n4)ccc3c2[nH]1)C(=O)CCC(C)C [Compound 445, N-{[4-amino-7-(1H-pyrazol-3-yl)-1H-imidazo[4,5-c]quinolin-2-yl]methyl}-N-ethyl-4-methylpentanamide]",740 nM
12,"CCN(Cc1nc2c(N)nc3cc(-c4cc[nH]n4)ccc3c2[nH]1)C(=O)c1cccn1C [Compound 446, N-{[4-amino-7-(1H-pyrazol-3-yl)-1H-imidazo[4,5-c]quinolin-2-yl]methyl}-N-ethyl-1-methyl-1H-pyrrole-2-carboxamide]",670 nM
13,"CCN(Cc1nc2c(N)nc3cc(-c4cc[nH]n4)ccc3c2[nH]1)C(=O)CCc1ccccc1 [Compound 447, N-{[4-amino-7-(1H-pyrazol-3-yl)-1H-imidazo[4,5-c]quinolin-2-yl]methyl}-N-ethyl-3-phenylpropanamide]",1500 nM
14,"CCN(Cc1nc2c(N)nc3cc(-c4cc[nH]n4)ccc3c2[nH]1)C(=O)c1ccccc1Cl [Compound 449, N-{[4-amino-7-(1H-pyrazol-3-yl)-1H-imidazo[4,5-c]quinolin-2-yl]methyl}-2-chloro-N-ethylbenzamide]",900 nM
